In test [1] the test system is cellular histone deacetylase enzymatic activity in Jurkat E6-1 cells. Put plainly: Inhibition of cellular HDAC activity in Jurkat E6-1 cells, Class IIa selective substrate Boc-Lys(Tfa)-AMC. The conditions noted are these: Homo sapiens. It is filed as cell-based. The protocol: Analysis of Inhibition of Cellular HDAC Activity with Class IIa Histone Deacetylase (HDAC) Inhibitors
After penetration in Jurkat E6-1 cells, the substrate is deacetylated to Boc-Lys-AMC. After cell lysis and cleavage by trypsin, the fluorophore AMC is released from the deacetylated substrate only. The fluoresence of the sample is directly related to the histone deacetylase activity in the sample.
Jurkat E6.1 Cell Culture and Plating.
Jurkat E6.1 cells are cultured according to standard cell culture protocols in Jurkat E6.1 Growth Media (RPMI without phenol red, 10% FBS, 10 mM HEPES, and 1 mM Sodium Pyruvate). Jurkat E6.1 cells are counted using a Coulter Counter and resuspended in Jurkat E6.1 growth media at a concentration of 75,000 cells/35 μl. 35 μl or 75,000 cells is seeded into Greiner microtitre assay plates. The plates are then incubated at 37° C. and 5% CO2 while other assay components are being prepared.
(§1) Serially Dilute HDAC Inhibitor Compounds.
Stocks of 70 μl aliquots of the 10 mM compound in DMSO are prepared and stored at −20° C. From one stock aliquot of each compound to be tested and the reference compound, a 16-point serial dilution is prepared according to Table 1 using a 125 μl 16-channel Matrix multi-channel pipette.
2 μl (200×) of each diluted solution and each control (full activity: 100% DMSO alone or full inhibition 1 mM) is stamped into V-bottom polypropylene 384-well compound plates using either the Bravo, Janus, or 12.5 μl 16-channel Matrix multi-channel pipette. Each well with the 200× compound solution is diluted 1:20 by the addition of 38 μl Jurkat assay buffer+DMSO (9.5% DMSO, RPMI without phenol red, 0.09% FBS, 9 mM Hepes, and 0.9 mM Sodium Pyruvate equilibrated to room temperature)
Prepare 5× (500 μM) Boc-Lys(Tfa)-AMC Substrate.
5× (500 μM) substrate is prepared just prior to the addition to the assay. The 5× substrate is prepared by diluting a 100 mM Boc-Lys(Tfa)-AMC in DMSO solution 1:200 by adding it drop-wise to Jurkat assay medium (RPMI without phenol red, 0.1% FBS, 10 mM Hepes, and 1 mM Sodium Pyruvate equilibrated to 37° C.) while vortexing at slow speed to prevent precipitation.
10 ml of 3× lysis buffer is prepared with 8.8 ml of 3× stock lysis buffer (50 mM Tris-HCl, pH 8.0, 137 mM NaCl, 2.7 mM KCl, 1 mM MgCl2, 1% Nonidet P40 Substitute equilibrated to room temperature) and 1.2 ml of 3 mg/ml Trypsin equilibrated to room temperature.
5 μl of each solution of 1:20 diluted compound from above is transferred to the Greiner microtitre assay plates with 75,000 cells/well using the Bravo. Cells are then incubated for 2 hours at 37° C. and 5% CO2. The assay is then started by adding 10 μl of 5× (500 μM) substrate to the assay plate using either the Bravo or 16-channel Matrix multi-channel pipette. The cells are then incubated for 3 hours at 37° C. and 5% CO2. Next, 25 μl of 3× lysis buffer is added to each well using either the 125 μl 16 channel pipette or the Bravo. The assay plate is then incubated overnight (15-16 hours) at 37° C. and 5% CO2. The following day, the plates are shaken on an orbital shaker for 1 minute at 900 rpm. Finally the top read fluorescence (Excitation: 355 nm, Emission: 460 nm) is measured using PerkinElmer EnVision.

The target of test [2] is human catalytic domain HDAC4 protein (Homo sapiens, UniProt P56524, A743G/DEL730-739/DEL742-742). Briefly: Inhibition of HDAC4 catalytic domain enzymatic activity, Boc-Lys(Tfa)-AMC substrate, fluorescence. To be noted: read-out: Biochemical HDAC-4 IC50. On the procedure: Analysis of Inhibition of HDAC4 with Class IIa Histone Deacetylase (HDAC) Inhibitors
The substrate is deacetylated to Boc-Lys-AMC by HDAC4. Cleavage by trypsin results in the release of the fluorophore AMC from the deacetylated substrate. The fluorescence of the sample is directly related to the histone deacetylase activity in the sample.
as §1
Stocks of 60 μl aliquots of the 10 mM compound in DMSO are prepared and stored at −20° C. From one stock aliquot of each compound to be tested and the reference compound, a 16-point serial dilution is prepared according to Table 1 using a 125 μl 16-channel Matrix multi-channel pipette (Matrix Technologies Ltd).
2 μl (200×) of each diluted solution and each control (full activity: 100% DMSO alone or full inhibition 1 mM) is stamped into V-bottomed polypropylene 384-well compound plates using either the Bravo (384-well head from Agilent) or 12.5 μl 16-channel Matrix multi-channel pipette (Matrix Technologies Ltd).
Prepare HDAC4 Catalytic Domain Enzyme (0.86 μg/ml).
Prepare 5× (50 NM) Boc-Lys(Tfa)-AMC Substrate.
5× (50 μM) substrate is prepared just prior to the addition to the assay. A 1 mM substrate stock is made by diluting a 100 mM Boc-Lys(Tfa)-AMC in DMSO solution 1:100 by adding it drop-wise to assay buffer (equilibrated to room temperature) while vortexing at slow speed to prevent precipitation. The 5× substrate is prepared by diluting the 1 mM substrate solution 1:20 by adding it drop-wise to assay buffer (equilibrated to room temperature) while vortexing at slow speed to prevent precipitation.
Prepare 3× (30 NM) Developer/Stop Solution.
5 μl of each solution of 1:20 diluted compound from above is transferred to a clear bottomed, black, 384-well assay plate using the Bravo or the Janus (384-well MDT head from Perkin Elmer). Using a 16-channel Matrix multi-channel pipette, 35 μl of the working solution of HDAC4 catalytic domain enzyme (0.86 μg/ml in assay buffer) is transferred to the assay plate. The assay is then started by adding 10 μl of 5× (50 μM) substrate to the assay plates using either the Bravo, Janus or 16-channel Matrix multi-channel pipette. The assay plate is then shaken for two minutes on an orbital shaker at 900 rpm (rotations per minute). Next the plate is incubated for 15 minutes at 37° C. The reaction is stopped by adding 25 μl of 3× (30 μM) developer/stop solution to the assay plates using either the Bravo, Janus or a 16-channel Matrix multi-channel pipette. Assay plates are then shaken for 5 minutes on an orbital shaker at 1200 rpm. Next, the assay plates are incubated at 37° C. for 1 hour in a tissue culture incubator.

A value given as a limit tells only on which side of the number the result lay.

Sequence of human catalytic domain HDAC4 protein (P56524 with tags, fused parts or gaps A743G/DEL730-739/DEL742-742): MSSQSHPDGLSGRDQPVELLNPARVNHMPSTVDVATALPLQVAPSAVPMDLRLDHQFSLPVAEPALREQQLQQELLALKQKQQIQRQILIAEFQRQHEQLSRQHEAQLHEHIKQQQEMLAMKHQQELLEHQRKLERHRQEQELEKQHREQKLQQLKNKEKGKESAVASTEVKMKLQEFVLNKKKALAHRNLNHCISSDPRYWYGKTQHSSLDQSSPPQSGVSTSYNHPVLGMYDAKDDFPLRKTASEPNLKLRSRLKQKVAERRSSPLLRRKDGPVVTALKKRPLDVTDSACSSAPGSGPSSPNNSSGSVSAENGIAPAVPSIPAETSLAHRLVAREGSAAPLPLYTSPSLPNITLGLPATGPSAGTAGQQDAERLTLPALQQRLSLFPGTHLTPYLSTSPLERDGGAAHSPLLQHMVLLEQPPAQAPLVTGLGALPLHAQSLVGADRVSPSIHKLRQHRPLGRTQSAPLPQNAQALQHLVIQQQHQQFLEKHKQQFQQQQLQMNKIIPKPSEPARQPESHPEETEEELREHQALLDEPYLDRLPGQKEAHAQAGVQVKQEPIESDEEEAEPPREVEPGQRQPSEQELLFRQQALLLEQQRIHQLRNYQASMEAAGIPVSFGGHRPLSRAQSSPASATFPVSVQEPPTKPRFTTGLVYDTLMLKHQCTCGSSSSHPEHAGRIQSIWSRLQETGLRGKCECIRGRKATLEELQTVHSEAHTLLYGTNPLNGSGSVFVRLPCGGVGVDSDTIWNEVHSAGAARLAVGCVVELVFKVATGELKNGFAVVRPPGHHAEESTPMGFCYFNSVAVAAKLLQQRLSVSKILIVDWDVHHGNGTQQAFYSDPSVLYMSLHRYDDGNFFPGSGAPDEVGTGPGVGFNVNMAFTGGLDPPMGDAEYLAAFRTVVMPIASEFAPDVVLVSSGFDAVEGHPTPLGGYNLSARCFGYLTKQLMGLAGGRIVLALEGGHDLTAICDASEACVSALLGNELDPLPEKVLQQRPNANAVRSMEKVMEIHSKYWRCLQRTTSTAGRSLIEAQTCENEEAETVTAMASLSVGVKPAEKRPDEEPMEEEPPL

Regarding `O=C(NO)[C@@]1(F)[C@@H](c2ccccc2)[C@@H]1c1ccc(-c2ncc(OC(F)F)cn2)cc1` [(1R,2R,3R)-2-(4-(5-(Difluoromethoxy)pyrimidin-2-yl)phenyl)-1-fluoro-N-hydroxy-3-phenylcyclopropanecarboxamide], the IC50 – broadly, the midpoint of a concentration-inhibition curve – in test [1] is above 50 µM.
On to `Cc1cnc(-c2ccc([C@H]3[C@H](c4ccccc4)[C@]3(Cl)C(=O)NO)cc2)nc1` [(1R,2R,3R)-1-Chloro-N-hydroxy-2-(4-(5-methylpyrimidin-2-yl)phenyl)-3-phenylcyclopropanecarboxamide], for which, in test [1], the IC50 amounted to 15.3 µM.
As to `O=C(NO)[C@@]1(F)[C@H](c2ccccc2)[C@H]1c1cc(Cl)c2c(c1)OCCO2` (racemic) [(1R*,2S*,3S*)-2-(8-Chloro-2,3-dihydrobenzo[b][1,4]dioxin-6-yl)-1-fluoro-N-hydroxy-3-phenylcyclopropanecarboxamide], the IC50 stood at 40 µM in test [1] and 6.47 µM in test [2].
Consider `O=C(NO)[C@@]1(F)[C@H](c2ccccc2)[C@H]1c1ccc(-c2cnc(C3CC3)o2)cc1` (racemic) [(1R*,2S*,3S*)-2-(4-(2-Cyclopropyloxazol-5-yl)phenyl)-1-fluoro-N-hydroxy-3-phenylcyclopropanecarboxamide], for which the IC50 worked out at 28 µM in test [1] and 4.65 µM in test [2].
On the same counts, the results for `O=C(NO)[C@]1(F)[C@H](c2ccccc2)[C@H]1c1ccc(Br)cc1` (racemic) [(1S*,2S*,3S*)-2-(4-Bromophenyl)-1-fluoro-N-hydroxy-3-phenylcyclopropanecarboxamide] are 0.87 µM and 0.06 µM.
`O=C(NO)[C@@]1(F)[C@@H](c2ccccc2)[C@@H]1c1ccc(-c2nccc(C(F)(F)F)n2)cc1` [(1R,2R,3R)-1-Fluoro-N-hydroxy-2-phenyl-3-(4-(4-(trifluoromethyl)pyrimidin-2-yl)phenyl)cyclopropanecarboxamide] had an IC50 in test [1] above 50 µM.
For `O=C(NO)[C@]1(F)[C@H](c2ccccc2)[C@H]1c1cnc(-c2ccc(F)cc2)s1` [(1S,2R,3S)-1-Fluoro-2-(2-(4-fluorophenyl)thiazol-5-yl)-N-hydroxy-3-phenylcyclopropanecarboxamide], the IC50 in test [1] was found to be 0.69 µM; in test [2] it was 0.06 µM.
For `O=C(NO)[C@]1(F)[C@H](c2ccccc2)[C@H]1c1ccc(-c2nccc(C(F)(F)F)n2)cc1` [(1S,2S,3S)-1-Fluoro-N-hydroxy-2-phenyl-3-(4-(4-(trifluoromethyl)pyrimidin-2-yl)phenyl)cyclopropanecarboxamide], the IC50 in test [1] amounted to 0.26 µM.
Still for that read-out and setting: for `O=C(NO)[C@@]1(F)[C@@H](c2ccccc2)[C@@H]1c1ccc(-c2ncc(F)cn2)cc1` [(1R,2R,3R)-1-Fluoro-2-(4-(5-fluoropyrimidin-2-yl)phenyl)-N-hydroxy-3-phenylcyclopropanecarboxamide] the value was 4.5 µM; for `Cc1cnc(-c2ccc([C@H]3[C@H](c4ccccc4)[C@]3(F)C(=O)NO)cc2)nc1` [(1R,2R,3R)-1-Fluoro-N-hydroxy-2-(4-(5-methylpyrimidin-2-yl)phenyl)-3-phenylcyclopropanecarboxamide], 8.9 µM.
The same measure, in the same setting: for `O=C(NO)[C@]1(F)[C@H](c2ccccc2)[C@H]1c1ccc(-c2ncc(OC(F)F)cn2)cc1` [(1S,2S,3S)-2-(4-(5-(Difluoromethoxy)pyrimidin-2-yl)phenyl)-1-fluoro-N-hydroxy-3-phenylcyclopropanecarboxamide] the value was 0.22 µM; for `Cc1cnc(-c2ccc([C@@H]3[C@@H](c4ccccc4)[C@@]3(F)C(=O)NO)cc2)nc1` [(1S,2S,3S)-1-Fluoro-N-hydroxy-2-(4-(5-methylpyrimidin-2-yl)phenyl)-3-phenylcyclopropanecarboxamide], 0.12 µM.
Consider `O=C(NO)[C@@]1(F)[C@H](c2ccccc2)[C@H]1c1ccnc(C2CC2)c1` (racemic) [(1R*,2S*,3S*)-2-(2-Cyclopropylpyridin-4-yl)-1-fluoro-N-hydroxy-3-phenylcyclopropanecarboxamide], for which the half-inhibitory concentration (IC50) in test [1] and in test [2] was above 50 µM each time.
As for `O=C(NO)[C@]1(F)[C@H](c2ccccc2)[C@H]1c1ccc(-c2cnc(C3CC3)o2)cc1` (racemic) [(1S*,2S*,3S*)-2-(4-(2-Cyclopropyloxazol-5-yl)phenyl)-1-fluoro-N-hydroxy-3-phenylcyclopropanecarboxamide], the values for the IC50 in test [1] and in test [2] were 0.31 µM and 0.02 µM, respectively.

The record behind these values is patent publication US9505736B2, “Histone deacetylase inhibitors and compositions and methods of use thereof” (CHDI Foundation, Inc., priority 2012, dated 2016).
